Data: article PMC11801715, “Activating PKC-ε induces HIV expression with improved tolerability” (PLOS Pathogens, 2025)
Where two headings read alike, the source gives them in different places.

Columns and labels:
[1] = system: latent HIV in total CD4+ T cells; test: microbe, parasite or virus in culture; format: cell-based, HIV-1; details: for HIV RNA Fold∆ over DMSO, Geomean: 5 μM
Protocol: Peripheral blood mononuclear cells and CD4^+ T cells used for evaluating PKC agonist and inhibitor molecules were isolated from leukopaks of selected participants as described previously. Isolated CD4^+ T cells (5×10^6 cells/well) were added to 24-well tissue culture plates in 2.5 mL of RPMI medium containing 100 nM each of elvitegravir and efavirenz. Cells were stimulated with DMSO (vehicle control) or the indicated concentrations of PKC agonist molecules. Cells were pretreated with PKC isoform inhibitors (Selleck Chemicals) for 1 hour before addition of PKC agonist at indicated concentrations and maintained at 37 °C, 5% CO2 for 3 days. Cell supernatants from each well were analyzed using the Cobas […] system for quantification of HIV-1 RNA using the HIV-1 test v2.0 kit (Roche Diagnostics).

CD69 on CD4+ T cells = test: CD4+ T-cell activation flow cytometry (CD69); format: cell-based; details: Homo sapiens; CD4+ T cells from ART-suppressed people with HIV; read-out: EC50, activation of CD69 expression
Protocol: Sixteen hours post treatment with PKC agonists, cellular activation of 100,000 CD4^+ T cells, taken from the above ex vivo HIV activation cultures, was assessed using flow cytometry. Cell surface expression of CD69 was measured on CD4^+ T cells using anti-human CD3 (UCHT1), CD4 (SK3) and CD69 (FN50) antibodies and standard flow staining methods. Stained cells were acquired on the Becton Dickinson (BD) LSR Fortessa II flow cytometer and results were analyzed using FlowJo software.

platelet-rich plasma = test: Platelet aggregation assay (light transmittance aggregometry); format: cell-based, human; details: dilution series, 20 minutes
Protocol: Given that C-232A induced DIC in rats and monkeys, we tested whether C-232A could directly induce platelet activation and downstream aggregation. […] Adenosine diphosphate, a known platelet agonist, was used as a positive control (S7A Fig).
Aggregation of platelets was assessed using light transmittance aggregometry using standard methods.
(A) Assay principle for platelet aggregation assay.

PBMCs = test: Cytokine induction in vitro in PBMC culture supernatants; format: cell-based, human; details: 24 hours
Protocol: Culture supernatants were analyzed for induction of several cytokines as shown in S3 Table, using a 10-plex MSD (Meso Scale Discovery) assay following manufacturer’s instructions. MSD Workbench 4.0 software was used for data analysis and 4-parameter logistic curve fit model was utilized to determine values of experimental samples from standard curves. Values for each cytokine (pg/mL) for a given concentration was calculated as the geometric mean of all triplicate values combined from all 5 donors.

PKC-α [2] = target: T1, PKC-α (Homo sapiens, UniProt P17252); test: PKC isoform translocation in A549-tGFP cells; format: cell-based; design: host or cells: A549
Protocol: (§1) A description of this effort is reported elsewhere.
(§2) Cellular translocation of PKC isoforms upon activation was determined in 8 A549 cell lines, each expressing a single PKC isoform fused to tGFP (PhenoVista Biosciences). Cells were plated in 384-well plates (80 μL/well) at 10^5 cells/mL in RPMI with 10% FBS and rested overnight. PKC agonist(s) were serially diluted at 1:3 steps in DMSO and added to the cells. After 60 minutes in an incubator at 37 °C, 5% CO2, cells were stained with Hoechst-33342 and fixed with 2% paraformaldehyde for 30 minutes at 4 °C. Cells were then stained with wheat germ agglutinin conjugated to AlexaFluor647 (WGA-647) for 10 minutes at 4 °C, washed to remove excess dye and imaged with Cellomics Array Scan (Thermo Fisher) at room temperature (RT). Images were analyzed using Cellomics automated image analysis algorithm. Plasma membrane translocation was quantified using the ratio between the average fluorescence in the areas at the cell edge defined by WGA-647 and the cytoplasm region.

PKC-δ = PKC-δ (Homo sapiens, UniProt Q05655); test: PKC isoform translocation in A549-tGFP cells; format: cell-based; design: host or cells: A549
Sequence of PKC-δ (Q05655 whole entry, canonical isoform): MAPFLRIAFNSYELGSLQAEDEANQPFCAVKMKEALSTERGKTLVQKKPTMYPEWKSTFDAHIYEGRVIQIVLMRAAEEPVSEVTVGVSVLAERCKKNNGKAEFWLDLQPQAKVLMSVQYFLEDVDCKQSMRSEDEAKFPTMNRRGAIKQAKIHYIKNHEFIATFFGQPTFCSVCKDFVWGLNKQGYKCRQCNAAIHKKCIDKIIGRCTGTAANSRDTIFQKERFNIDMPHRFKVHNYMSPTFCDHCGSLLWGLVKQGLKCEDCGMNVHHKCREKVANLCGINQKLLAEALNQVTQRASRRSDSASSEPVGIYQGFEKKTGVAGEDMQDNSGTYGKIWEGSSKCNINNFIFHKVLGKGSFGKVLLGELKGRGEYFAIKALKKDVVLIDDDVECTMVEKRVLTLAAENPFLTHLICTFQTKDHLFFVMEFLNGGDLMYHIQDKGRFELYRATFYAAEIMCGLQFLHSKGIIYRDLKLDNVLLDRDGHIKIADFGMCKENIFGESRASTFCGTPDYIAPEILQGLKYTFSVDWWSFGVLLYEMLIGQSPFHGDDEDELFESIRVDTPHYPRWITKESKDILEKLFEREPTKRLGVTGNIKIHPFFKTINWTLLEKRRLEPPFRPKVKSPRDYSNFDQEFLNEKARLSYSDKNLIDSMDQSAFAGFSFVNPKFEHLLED
Protocol: as §1, §2

PKC-η = PKC-η (Homo sapiens, UniProt P24723); test: PKC isoform translocation in A549-tGFP cells; format: cell-based; design: host or cells: A549; details: A549-tGFP cells, 60 minutes
Sequence of PKC-η (P24723 whole entry, canonical isoform): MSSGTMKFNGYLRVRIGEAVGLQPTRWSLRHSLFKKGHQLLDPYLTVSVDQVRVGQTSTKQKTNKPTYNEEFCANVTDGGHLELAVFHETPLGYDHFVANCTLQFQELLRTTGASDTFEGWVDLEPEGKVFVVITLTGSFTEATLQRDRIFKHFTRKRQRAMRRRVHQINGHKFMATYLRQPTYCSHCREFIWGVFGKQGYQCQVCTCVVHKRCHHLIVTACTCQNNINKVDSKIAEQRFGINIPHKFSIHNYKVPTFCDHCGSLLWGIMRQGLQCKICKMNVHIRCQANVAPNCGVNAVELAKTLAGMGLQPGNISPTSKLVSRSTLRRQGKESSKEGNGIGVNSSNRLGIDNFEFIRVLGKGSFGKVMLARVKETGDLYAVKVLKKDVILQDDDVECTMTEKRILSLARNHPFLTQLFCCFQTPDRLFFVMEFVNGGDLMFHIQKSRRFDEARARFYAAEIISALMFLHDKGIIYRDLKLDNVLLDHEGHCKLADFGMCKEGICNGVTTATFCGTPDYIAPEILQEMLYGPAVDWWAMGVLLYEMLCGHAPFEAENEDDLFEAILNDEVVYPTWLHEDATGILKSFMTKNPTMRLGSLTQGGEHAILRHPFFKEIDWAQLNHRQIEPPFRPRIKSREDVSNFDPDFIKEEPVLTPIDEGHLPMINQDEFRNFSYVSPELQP
Protocol: as §1, §2

PKC-θ = PKC-θ (Homo sapiens, UniProt Q04759); test: PKC isoform translocation in A549-tGFP cells; format: cell-based; design: host or cells: A549; details: A549-tGFP cells, 60 minutes
Sequence of PKC-θ (Q04759 whole entry, canonical isoform): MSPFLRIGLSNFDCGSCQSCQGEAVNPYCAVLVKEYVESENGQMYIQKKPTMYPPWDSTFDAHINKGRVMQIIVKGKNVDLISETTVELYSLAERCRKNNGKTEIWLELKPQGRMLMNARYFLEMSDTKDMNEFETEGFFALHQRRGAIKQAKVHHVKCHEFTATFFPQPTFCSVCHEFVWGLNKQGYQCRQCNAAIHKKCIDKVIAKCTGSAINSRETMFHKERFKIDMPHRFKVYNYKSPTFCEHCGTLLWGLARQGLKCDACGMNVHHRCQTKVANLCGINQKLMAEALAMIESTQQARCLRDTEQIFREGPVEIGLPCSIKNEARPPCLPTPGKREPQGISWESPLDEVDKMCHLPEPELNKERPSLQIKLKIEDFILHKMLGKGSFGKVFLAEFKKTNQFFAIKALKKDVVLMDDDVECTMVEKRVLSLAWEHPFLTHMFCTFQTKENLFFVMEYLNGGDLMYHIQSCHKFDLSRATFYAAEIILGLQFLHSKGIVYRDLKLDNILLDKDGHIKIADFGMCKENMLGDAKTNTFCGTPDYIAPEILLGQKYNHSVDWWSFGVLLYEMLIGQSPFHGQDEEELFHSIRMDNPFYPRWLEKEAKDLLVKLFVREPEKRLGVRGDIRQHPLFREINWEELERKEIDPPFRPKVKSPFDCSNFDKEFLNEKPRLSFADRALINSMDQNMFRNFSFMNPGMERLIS
Protocol: as §1, §2

PKC-β1 [3] = target: T2, PKC-β1 (Homo sapiens, UniProt P05771); test: PKC isoform translocation in A549-tGFP cells; format: cell-based; design: host or cells: A549; details: 60 minutes
T2 sequence (P05771 whole entry, canonical isoform): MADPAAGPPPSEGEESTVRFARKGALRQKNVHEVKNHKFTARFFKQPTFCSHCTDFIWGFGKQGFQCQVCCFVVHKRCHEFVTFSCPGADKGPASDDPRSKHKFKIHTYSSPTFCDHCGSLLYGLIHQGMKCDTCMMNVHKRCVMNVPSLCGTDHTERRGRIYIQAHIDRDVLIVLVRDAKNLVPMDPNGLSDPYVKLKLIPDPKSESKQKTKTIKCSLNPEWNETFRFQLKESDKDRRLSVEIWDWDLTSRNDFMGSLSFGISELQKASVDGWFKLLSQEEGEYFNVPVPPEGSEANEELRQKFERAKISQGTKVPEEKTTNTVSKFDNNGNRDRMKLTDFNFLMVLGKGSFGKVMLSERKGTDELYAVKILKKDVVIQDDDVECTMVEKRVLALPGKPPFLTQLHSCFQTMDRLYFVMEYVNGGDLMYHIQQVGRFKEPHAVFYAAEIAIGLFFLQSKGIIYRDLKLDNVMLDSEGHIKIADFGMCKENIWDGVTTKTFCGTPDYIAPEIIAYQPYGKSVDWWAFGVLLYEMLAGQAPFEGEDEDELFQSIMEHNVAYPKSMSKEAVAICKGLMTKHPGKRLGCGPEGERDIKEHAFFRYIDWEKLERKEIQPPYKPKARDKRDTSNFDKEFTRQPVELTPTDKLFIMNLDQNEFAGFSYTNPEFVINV
Protocol: (§3) Using these findings we embarked on new designs for DAG-lactones with additional substituents from the ester moiety in combination with a few olefin substituents. A description of this effort is reported elsewhere.
as §2

PKC-β2 [4] = target: T3, PKC-β2 (Homo sapiens, UniProt P05771); test: PKC isoform translocation in A549-tGFP cells; format: cell-based; design: host or cells: A549; details: 60 minutes
T3 sequence (P05771 1-673 isoform P05771-2): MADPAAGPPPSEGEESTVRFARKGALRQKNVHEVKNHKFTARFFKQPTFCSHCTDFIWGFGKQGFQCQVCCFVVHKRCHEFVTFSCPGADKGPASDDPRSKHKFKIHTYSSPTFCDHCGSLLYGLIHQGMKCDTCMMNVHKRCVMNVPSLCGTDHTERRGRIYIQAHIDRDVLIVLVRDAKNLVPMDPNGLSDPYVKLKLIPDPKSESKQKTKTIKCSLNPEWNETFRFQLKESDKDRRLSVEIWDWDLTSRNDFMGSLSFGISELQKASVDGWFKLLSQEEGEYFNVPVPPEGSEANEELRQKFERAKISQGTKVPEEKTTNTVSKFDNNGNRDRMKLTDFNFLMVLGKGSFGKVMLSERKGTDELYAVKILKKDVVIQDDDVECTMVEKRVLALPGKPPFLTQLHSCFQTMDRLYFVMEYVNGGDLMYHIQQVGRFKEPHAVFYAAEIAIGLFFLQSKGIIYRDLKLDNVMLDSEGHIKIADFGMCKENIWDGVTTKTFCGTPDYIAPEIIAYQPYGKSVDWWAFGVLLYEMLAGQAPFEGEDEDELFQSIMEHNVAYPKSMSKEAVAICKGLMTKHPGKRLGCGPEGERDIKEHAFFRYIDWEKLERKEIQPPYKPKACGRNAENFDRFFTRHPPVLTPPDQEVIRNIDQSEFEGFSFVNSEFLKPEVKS
Protocol: as §3, §2

PKC-ε = target: T4, PKC-ε (Homo sapiens, UniProt Q02156); test: PKC isoform translocation in A549-tGFP cells; format: cell-based; design: host or cells: A549; details: A549-tGFP cells, 60 minutes
T4 sequence (Q02156 1-737): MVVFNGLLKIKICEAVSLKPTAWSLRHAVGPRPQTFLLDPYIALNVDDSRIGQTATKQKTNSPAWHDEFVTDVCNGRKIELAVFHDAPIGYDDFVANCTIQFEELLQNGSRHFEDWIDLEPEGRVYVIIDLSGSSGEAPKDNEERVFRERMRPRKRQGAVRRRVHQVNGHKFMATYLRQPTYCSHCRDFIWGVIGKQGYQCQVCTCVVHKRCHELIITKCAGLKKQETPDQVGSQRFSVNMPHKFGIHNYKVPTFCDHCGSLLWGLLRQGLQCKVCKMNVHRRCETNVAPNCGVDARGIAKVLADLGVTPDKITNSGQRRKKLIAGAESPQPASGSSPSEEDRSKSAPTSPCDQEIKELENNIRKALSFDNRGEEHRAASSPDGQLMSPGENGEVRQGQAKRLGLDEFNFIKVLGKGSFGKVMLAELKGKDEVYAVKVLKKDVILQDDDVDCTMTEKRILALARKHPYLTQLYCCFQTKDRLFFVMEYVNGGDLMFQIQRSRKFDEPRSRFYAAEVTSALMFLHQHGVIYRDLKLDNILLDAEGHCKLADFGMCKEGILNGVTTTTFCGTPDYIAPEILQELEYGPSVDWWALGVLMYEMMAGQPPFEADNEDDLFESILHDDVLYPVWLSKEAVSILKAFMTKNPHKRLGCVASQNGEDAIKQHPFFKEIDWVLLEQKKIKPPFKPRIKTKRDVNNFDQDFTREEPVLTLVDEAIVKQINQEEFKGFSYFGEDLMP
Protocol: as §3, §2

[5] = system: platelets (CD62P+) and CD4+ T cells (CD69+) in whole blood; test: In vitro whole blood platelet and CD4+ T-cell activation assay; format: cell-based, human; details: whole blood from healthy donors; platelets to CD4+ T cells
Protocol: We developed a novel human whole blood assay to determine whether other PKC agonists also activate platelets at the same concentrations that are required to activate CD4^+ T cells. Platelet activation was assessed by CD62P (P-selectin), which traffics to the cell surface upon activation and α-granule release. CD4^+ T-cell activation was assessed by CD69 upregulation (Fig 7A).
Whole blood was drawn into sodium citrate tubes using a 21-gauge needle. To prevent potential interference from tissue thromboplastin released during venipuncture, which could affect the accuracy of coagulation testing, the first 2 mL of blood drawn was discarded. PKC agonist molecules were dispensed in a dilution series into 80 μL of blood per well in a flat-bottom 96-well plate and mixed gently. Care was taken not to introduce any mechanical stress-related activation of platelets. […] The remaining 72 μL of blood in the first plate was incubated for 1 additional hour and stained with anti-human CD3 (UCHT1), CD4 (SK3), and CD69 (FN50) (30 minutes in the dark). Red blood cell lysis and fixing was done using BD lyse/fix solution. Stained cells were acquired on BD LSR Fortessa II after washing. […] EC50 values for platelet and CD4 T-cell activation for each agonist was obtained by nonlinear regression curve fit using GraphPad Prism version 9.3.0.

PKC-α [6] = target: T1, PKC-α; test: Z'-LYTE kinase activity assay; format: biochemical; details: ATP at Kmapp, 2 μM peptide substrate; read-out: IC50 for classical PKC isoforms, PKC-α
Text: (§4) In this assay, phosphorylation of a synthetic FRET-peptide substrate protects the peptide from cleavage by the development reagent and prevents disruption of the FRET signal.

PKC-β1 [7] = target: T2, PKC-β1; test: Z'-LYTE kinase activity assay; format: biochemical; details: ATP at Kmapp, 2 μM peptide substrate; read-out: IC50 for classical PKC isoforms, PKC-β1
Text: as §4

PKC-β2 [8] = target: T3, PKC-β2; test: Z'-LYTE kinase activity assay; format: biochemical; details: ATP at Kmapp, 2 μM peptide substrate; read-out: IC50 for classical PKC isoforms, PKC-β2
Text: as §4

[9] = system: classical and novel PKC isoforms; test: Estimated PKC inhibition in cell culture from Z'-LYTE IC50 and free fraction; format: biochemical; details: 25 µM, 34% free in cell culture media
Text: as §4

[10] = Free fraction in cell culture media; format: in vitro ADME
PKC δ and ε over α and β = details: cited from earlier work
PKC-γ = PKC-γ (Homo sapiens, UniProt P05129); test: PKC isoform translocation in A549-tGFP cells; format: cell-based; design: host or cells: A549; details: 60 minutes
Protocol: as §3, §2

CC(=O)O[C@@]12C[C@@H](C)[C@@]3(O)[C@@H](C=C(CO)C[C@]4(O)C(=O)C(C)=C[C@@H]34)[C@@H]1C2(C)C [Prostratin, prostratin, reference compound]
EC50 ([1]; Human immunodeficiency virus 1, CD4+ T, read-out: EC50, activation of HIV expression): 2500 nM | EC50 (CD69 on CD4+ T cells): 280 nM | platelet aggregation (platelet-rich plasma): stimulated platelet aggregation | GM-CSF in PBMC culture supernatant (PBMCs; 625 nM): 35 pg/mL | IFN-γ in PBMC culture supernatant (PBMCs; 625 nM): 255 pg/mL | IL-1b in PBMC culture supernatant (PBMCs; 625 nM): 57 pg/mL | IL-2 in PBMC culture supernatant (PBMCs; 625 nM): 22 pg/mL | IL-4 in PBMC culture supernatant (PBMCs; 625 nM): 0.7 pg/mL | IL-6 in PBMC culture supernatant (PBMCs; 625 nM): 40 pg/mL | IL-8 in PBMC culture supernatant (PBMCs; 625 nM): 40,698 pg/mL | IL-10 in PBMC culture supernatant (PBMCs; 625 nM): 4 pg/mL | IL-12p70 in PBMC culture supernatant (PBMCs; 625 nM): 10 pg/mL | TNF-α in PBMC culture supernatant (PBMCs; 625 nM): 634 pg/mL | GM-CSF in PBMC culture supernatant (PBMCs; 2500 nM): 68 pg/mL | IFN-γ in PBMC culture supernatant (PBMCs; 2500 nM): 292 pg/mL | IL-1b in PBMC culture supernatant (PBMCs; 2500 nM): 108 pg/mL | IL-2 in PBMC culture supernatant (PBMCs; 2500 nM): 32 pg/mL | IL-4 in PBMC culture supernatant (PBMCs; 2500 nM): 1.1 pg/mL | IL-6 in PBMC culture supernatant (PBMCs; 2500 nM): 78 pg/mL | IL-8 in PBMC culture supernatant (PBMCs; 2500 nM): 45,930 pg/mL | IL-10 in PBMC culture supernatant (PBMCs; 2500 nM): 4.6 pg/mL | IL-12p70 in PBMC culture supernatant (PBMCs; 2500 nM): 12 pg/mL | TNF-α in PBMC culture supernatant (PBMCs; 2500 nM): 1489 pg/mL

CC(C)=C1CC(CO)(COC(=O)c2ccc(C#Cc3ccc(C)cc3)cc2)OC1=O (stereo not shown) [Comin compound 2]
HIV RNA Fold∆ over DMSO, Geomean ([1]; agonist alone): 13 fold | HIV RNA Fold∆ over DMSO, Geomean ([1]; +5 μM Gö-6850 Pan-PKC Inhibitor): 1.6 fold | HIV RNA Fold∆ over DMSO, Geomean ([1]; +25 μM Gö-6976 Classical-PKC Inhibitor): 15 fold | EC50 (PKC-α [2]; A549-tGFP cells, 60 minutes, read-out: EC50 for PKC-α translocation): > 50000 nM | EC50 (PKC-δ; A549-tGFP cells, 60 minutes, read-out: EC50 for PKC-δ translocation): 4040 nM | EC50 (PKC-η): 1190 nM | EC50 (PKC-θ): 792 nM | EC50 (PKC-β1 [3]): 966 nM | EC50 (PKC-β2 [4]): 6650 nM | EC50 (PKC-ε): 783 nM

CCCCCCCCCCCCCC(=O)O[C@@H]1[C@@H](C)[C@@]2(O)[C@@H](C=C(CO)C[C@]3(O)C(=O)C(C)=C[C@@H]23)[C@@H]2C(C)(C)[C@]12OC(C)=O [PMA, phorbol 12-myristate 13-acetate, reference compound]
CD62P EC50/CD69 EC50 ratio Geomean [5]: 1.5

Cn1c2ccccc2c2c3c(c4c5ccccc5n(CCC#N)c4c21)CNC3=O [Gӧ-6976]
IC50 (PKC-α [6]): 101 nM | IC50 (PKC-β1 [7]): 469 nM | IC50 (PKC-β2 [8]): 182 nM | estimated effect on novel PKC isoforms [9]: without impacting novel PKC isoforms | estimated inhibition of classical isoform activity [9]: 75%–95% | free in cell culture media [10]: 34%

CC(C)CC(C/C=C1\CC(CO)(COC(=O)C(C)(C)C)OC1=O)CC(C)C (stereo not shown) [AJH-863, reference compound]
potency as PKC agonist (PKC δ and ε over α and β): low nanomolar potency | selectivity for δ and ε over α and β (PKC δ and ε over α and β): approximately 10 fold | EC50 (PKC-α [2]): > 50000 nM | EC50 (PKC-δ; EC50 for PKC-δ translocation): 2320 nM | EC50 (PKC-η): 1890 nM | EC50 (PKC-θ): 1200 nM | EC50 (PKC-β1 [3]): 1300 nM | EC50 (PKC-β2 [4]): 1060 nM | EC50 (PKC-γ): 19400 nM | EC50 (PKC-ε): 505 nM

CCCCCC(=O)O[C@H]1C(C)=C[C@]23C(=O)[C@@H](C=C(CO)[C@@H](O)[C@]12O)[C@H]1[C@@H](C[C@H]3C)C1(C)C [Ingenol B, reference compound]
CD62P EC50/CD69 EC50 ratio Geomean [5]: 1.8

CC(C)[C@H]1C(=O)N[C@H](CO)Cc2c[nH]c3cccc(c23)N1C [Indolactam, reference compound]
CD62P EC50/CD69 EC50 ratio Geomean [5]: 2.0
